Results as given in US8975232B2, “Macrocyclic kinase inhibitors and uses thereof” (President and Fellows of Harvard College, priority 2010, dated 2015).
Where two headings read alike, the source gives them in different places.

Experiments:
Src kinase domain = biological target: T1, Src kinase domain (Gallus gallus, UniProt P00523); test: Fluorescence anisotropy binding assay; parameters: species or system chicken; conditions: fluorescein-labeled macrocycle, read-out: dissociation constant (KD)
T1 construct: chicken c-Src (residues 251-533 and residues 83-533); made in house
Description: The change in fluorescence anisotropy of fluorescein-labeled MC1, MC4 and MC9 at 518 nm upon excitation at 492 nm was monitored with a HORIBA Jobin Yvon FluoroMax-4 (Edison, N.J.) spectrofluorimeter. Kinase was titrated to 0.5 μM of the fluorescently labeled macrocycle in 100 mM Tris pH 8.0, 10 mM MgCl2 at 25° C. After equilibration, the increase in the fluorescence anisotropy of the fluorescently labeled ligand was recorded and fitted against a quadratic binding equation in Kaleidagraph (Synergy Software, Reading Pa.) to yield the dissociation constant KD.
To clarify the inhibitory mechanism of the compounds further, the binding affinity of fluorescently labeled MC1, MC4, and MC9 to Src kinase domain was determined in a fluorescence anisotropy assay (FIG. 21).

[1] = biological target: T2, Src83-533 (chicken c-Src 83-533) (Gallus gallus, UniProt P00523); test: Kinase activity assay with longer Src construct including SH3 and SH2 domains; type: biochemical; conditions: Src wild-type construct containing SH3 and SH2 domains
T2 construct: the regulatory SH3 and SH2 domains (chicken c-Src 83-533); made in house
Source text: (§1) Kinase domain constructs of human c-Abl (residues 229-512), chicken c-Src (residues 251-533 and residues 83-533), murine Lck (residues 227-509), and human Hck (residues 166-445) were expressed as previously described (Seeliger, Young et al. 2005; Seeliger, Nagar et al. 2007; the entire contents of each of which are incorporated by reference herein). Mutations were introduced into chicken c-Src (residues 251-533) (T338I, C277Q, L297M) by site-directed mutagenesis and verified by DNA sequencing.
In vitro kinase inhibition assays were performed using either a continuous spectrophotometric assay or a FRET-based endpoint assay. […]
To address this discrepancy, the two major differences between the fluorescent peptide-based Z′-LYTE assay and the continuous spectrophotometric assay employed here were investigated: the kinase construct used (full-length kinase in the Z-LYTE assay vs. kinase domain in the current study) and the peptide identity and concentration (5 μM fluorescent Abl-optimal substrate peptide in the previous study vs. 100 μM Src-optimal substrate peptide in the current study). […] The IC50 values determined for MC1.2 and MC4.1 were close to the concentration of the kinase used in the assay and therefore these values only represent an upper estimate of the real potency of these compounds.

Src kinase = Src kinase (Homo sapiens, UniProt P12931); test: Z'-LYTE kinase assay (Invitrogen), Src; type: biochemical; parameters: full-length kinase in the Z-LYTE assay vs. kinase domain in the current study; purchased Millipore; conditions: Z'-LYTE; ATP near KM
Description: Nine macrocycles enriched in the Src selection (FIG. 5) and synthesized as described above were assayed in vitro for the ability to inhibit Src kinase activity. Kinase activity was assayed in the presence of varying concentrations of macrocycle using the FRET-based Z′-LYTE assay (Invitrogen).
Src IC50 determinations and single-point inhibition measurements were performed using Invitrogen's Z′-LYTE Tyr 02 assay kit according to the manufacturer's protocols. All kinase assays were performed at ATP concentrations near KM,ATP values, except where noted otherwise. Active human Src kinase was obtained from Millipore. For kinome profiling and IC50 determinations against non-Src kinases, compounds were submitted to Invitrogen's SelectScreen Kinase Profiling Service.

Src Thr338Ile = test: Inhibition of Src gatekeeper mutant; type: biochemical, chicken
Source text: as §1
For the FRET-based endpoint assay, kinase assays were performed using Invitrogen's Z′-LYTE kinase assay using the Tyr 02 substrate peptide (based upon the optimal Abl substrate peptide […]) according to the manufacturer's instructions. Assays were performed at near KM ATP concentrations for full-length c-Src and full-length c-Src T338I-50 μM and 7 μM, respectively.

[2] = biological target: T3, Src kinase domain (chicken c-Src residues 251-533) (Gallus gallus, UniProt P00523); test: Continuous spectrophotometric kinase activity assay; type: biochemical; conditions: Src kinase domain; 5 μM ATP, 100 μM Src optimal peptide
T3 construct: chicken c-Src (residues 251-533 and residues 83-533); made in house

Sequence of Src kinase (P12931 whole entry, the tested form may be a part): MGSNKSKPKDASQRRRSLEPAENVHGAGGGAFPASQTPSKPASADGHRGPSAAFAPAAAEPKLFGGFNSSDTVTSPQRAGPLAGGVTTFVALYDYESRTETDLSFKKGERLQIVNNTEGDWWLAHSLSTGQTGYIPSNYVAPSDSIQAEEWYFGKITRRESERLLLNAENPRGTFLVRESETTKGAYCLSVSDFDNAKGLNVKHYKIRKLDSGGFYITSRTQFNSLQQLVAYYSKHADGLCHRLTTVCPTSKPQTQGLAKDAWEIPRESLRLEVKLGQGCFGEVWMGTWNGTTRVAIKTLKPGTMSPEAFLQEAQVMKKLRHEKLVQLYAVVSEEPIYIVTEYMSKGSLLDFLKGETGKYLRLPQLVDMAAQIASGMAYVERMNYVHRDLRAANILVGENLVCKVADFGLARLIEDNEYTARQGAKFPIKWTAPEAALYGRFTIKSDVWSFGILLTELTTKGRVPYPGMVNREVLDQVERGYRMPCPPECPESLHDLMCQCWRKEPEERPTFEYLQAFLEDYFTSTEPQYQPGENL

Work on `NC(=O)[C@@H]1CCNC(=O)[C@H](CCCNC(=O)c2cnccn2)NC(=O)[C@H](CC2CCCCC2)NC(=O)[C@H](C/C=C/c2ccccc2)NC(=O)/C=C\C(=O)N1` [cis-A11-B8-C10-D7] yielded a Kd (Src kinase domain; 250 μM AMP-PNP) of 12.6 µM, a Kd (Src kinase domain; no competitor) of 3.6 µM and an IC50 [1] of 0.39 µM. For the same molecule, the IC50 (Src kinase) was 25 µM, the “lower potency against gatekeeper mutant than against Src wild-type” value (Src Thr338Ile) was “about 3 fold” and the IC50 (Src Thr338Ile; Src Thr338Ile containing SH3 and SH2 domains) was 1 µM. For the same molecule, the IC50 [2] was 69 µM.
